Data reported in ChEMBL document CHEMBL1770102, “Identification of novel potential antibiotics for tuberculosis by in silico structure-based drug screening” (Eur J Med Chem, 2011).
Calls of active or inactive are those of the source. The rule behind the calls is not given here.

Tests used:
[1] = test system: Mycobacterium vanbaalenii; experiment: Antibacterial activity against Mycobacterium vanbaalenii assessed as inhibition of cell growth after 24 hrs; type: functional, Mycolicibacterium vanbaalenii
Escherichia coli [2] = experiment: Toxicity against Escherichia coli JM109; type: organism-based; settings: in vivo
MDCK = experiment: Cytotoxicity against dog MDCK cells at 30 uM after 2 days by measuring absorbance at 460 nm; type: cell-based, Canis lupus familiaris; settings: 48 h
Escherichia coli [3] = experiment: Toxicity against Escherichia coli BL21
Rhodococcus opacus [4] = experiment: Antibacterial activity against Rhodococcus opacus assessed as growth inhibition at 30 uM after 72 hrs by microplate reader; type: functional
SH-SY5Y = experiment: Cytotoxicity against human SH-SY5Y cells at 30 uM after 2 days by measuring absorbance at 460 nm; type: functional, cell-based
[5] = test system: Mycobacterium vanbaalenii; experiment: Antibacterial activity against Mycobacterium vanbaalenii assessed as growth inhibition at 30 uM after 72 hrs by microplate reader; type: functional; settings: Mycolicibacterium vanbaalenii
[6] = test system: Mycobacterium vanbaalenii; experiment: Antibacterial activity against Mycobacterium vanbaalenii assessed as growth inhibition at 30 uM after 6 hrs by microplate reader; type: functional; settings: Mycolicibacterium vanbaalenii
Rhodococcus opacus [7] = experiment: Antibacterial activity against Rhodococcus opacus assessed as growth inhibition at 50 uM after 72 hrs by microplate reader; type: functional
[8] = test system: Mycobacterium tuberculosis; experiment: Antibacterial activity against Mycobacterium tuberculosis assessed as inhibition of cell growth after 24 hrs; type: functional, organism-based
Rhodococcus opacus [9] = experiment: Antibacterial activity against Rhodococcus opacus assessed as growth inhibition at 100 ug/ml after 72 hrs by microplate reader; type: functional

SMILES: COc1cc2c(cc1NC(=O)CSc1nnc(-c3ccccc3C)n1Cc1ccoc1)oc1ccccc12
- IC50 [1]: 5.3 µM
- Activity (Escherichia coli [2]): Non-toxic
- Activity (MDCK): Non-toxic
- Activity (Escherichia coli [3]): Non-toxic
- growth inhibition (GI) (Rhodococcus opacus [4]): Active
- Activity (SH-SY5Y): Not toxic
- growth inhibition (GI) [5]: Active
- growth inhibition (GI) [6]: Active

SMILES: COc1ccc(OC)c(NS(=O)(=O)c2ccc(NC(=O)CN3C(=O)c4cccc5cccc3c45)cc2)c1
- Activity (MDCK): Toxic
- Activity (SH-SY5Y): Toxic
- growth inhibition (GI) [5]: Active
- growth inhibition (GI) [6]: Active

SMILES: COC(=O)c1ccc(Cl)c(NC(=O)CN(c2ccc(OCc3ccccc3)cc2)S(C)(=O)=O)c1
- growth inhibition (GI) [5]: Active
- growth inhibition (GI) [6]: Active

SMILES: NNC(=O)c1ccncc1 [ISONIAZID]
- growth inhibition (GI) (Rhodococcus opacus [7]): Active
- growth inhibition (GI) [5]: Active
- IC50 [8]: 15 µM

SMILES: O=S(=O)(NCCc1ccccc1)c1cccc2c(S(=O)(=O)NCCc3ccccc3)cccc12
- growth inhibition (GI) [6]: inactive

SMILES: CN(C(=O)CSc1nc(Nc2ccccc2)nc(N2CCOCC2)n1)C12CC3CC(CC(C3)C1)C2
- growth inhibition (GI) [5]: inactive
- growth inhibition (GI) [6]: Active

SMILES: CC1(C)S[C@@H]2[C@H](NC(=O)[C@H](N)c3ccccc3)C(=O)N2[C@H]1C(=O)O
- growth inhibition (GI) (Rhodococcus opacus [9]): Active
